In the NIST ThermoML archive (doi:10.1021/je500458e):

Test: mn = molality of the nth substance listed, in mol/kg
Conditions: 298.15 K, Liquid

Nc1nc(O)c2ncn([C@H]3C[C@H](O)[C@@H](CO)O3)c2n1 [2'-deoxyguanosine] + O
speed of sound [m/s]
Conditions	100 kPa	10000 kPa	20000 kPa	40000 kPa	60000 kPa	80000 kPa	100000 kPa
m1 = 0.009827	1497.4	–	–	–	–	–	–
m1 = 0.01011	1497.4	–	–	–	–	–	–
m1 = 0.01028	1497.4	–	–	–	–	–	–
m1 = 0.0103	1497.4	1514	1530.8	1564.4	1597.9	1631.3	1664.4
m1 = 0.01036	–	–	1530.8	1564.4	1597.9	1631.3	1664.4
m1 = 0.01043	–	1514	1530.8	1564.4	1597.9	1631.3	1664.4
m1 = 0.01048	1497.4	1514	1530.8	1564.4	1597.9	1631.3	1664.4
m1 = 0.01051	1497.4	–	–	–	–	–	–
m1 = 0.01057	1497.4	–	–	–	–	–	–
m1 = 0.01059	–	1514.1	1530.9	–	1597.9	1631.3	1664.5
m1 = 0.01062	–	1514.1	1530.9	1564.4	1597.9	1631.3	1664.5
m1 = 0.01068	–	1514.1	1530.9	–	1597.9	1631.3	1664.5
m1 = 0.0107	1497.5	–	–	–	–	–	–
m1 = 0.01075	–	1514.1	1530.9	1564.4	1597.9	1631.3	1664.5

O=c1[nH]cnc2c1ncn2[C@H]1C[C@H](O)[C@@H](CO)O1 [2'-deoxyinosine] + O
Conditions	speed of sound [m/s]
100 kPa, m1 = 0.02199	1498.1
100 kPa, m1 = 0.02301	1498.2
100 kPa, m1 = 0.024	1498.3
100 kPa, m1 = 0.02493	1498.3
100 kPa, m1 = 0.02599	1498.4
100 kPa, m1 = 0.02701	1498.5
100 kPa, m1 = 0.02813	1498.6
100 kPa, m1 = 0.02896	1498.6
100 kPa, m1 = 0.02994	1498.7
10000 kPa, m1 = 0.02283	1514.8
10000 kPa, m1 = 0.0239	1514.9
10000 kPa, m1 = 0.02481	1514.9
10000 kPa, m1 = 0.02661	1515
10000 kPa, m1 = 0.02749	1515.1
10000 kPa, m1 = 0.02755	1515.1
10000 kPa, m1 = 0.02877	1515.2
10000 kPa, m1 = 0.02944	1515.2
20000 kPa, m1 = 0.02283	1531.6
20000 kPa, m1 = 0.0239	1531.7
20000 kPa, m1 = 0.02481	1531.7
20000 kPa, m1 = 0.02661	1531.9
20000 kPa, m1 = 0.02749	1531.9
20000 kPa, m1 = 0.02755	1531.9
20000 kPa, m1 = 0.02877	1532
20000 kPa, m1 = 0.02944	1532
40000 kPa, m1 = 0.02283	1565.2
40000 kPa, m1 = 0.0239	1565.3
40000 kPa, m1 = 0.02481	1565.3
40000 kPa, m1 = 0.02661	1565.5
40000 kPa, m1 = 0.02749	1565.5
40000 kPa, m1 = 0.02755	1565.5
40000 kPa, m1 = 0.02877	1565.6
40000 kPa, m1 = 0.02944	1565.6
60000 kPa, m1 = 0.02283	1598.7
60000 kPa, m1 = 0.0239	1598.8
60000 kPa, m1 = 0.02481	1598.9
60000 kPa, m1 = 0.02661	1599
60000 kPa, m1 = 0.02749	1599
60000 kPa, m1 = 0.02755	1599
60000 kPa, m1 = 0.02877	1599.1
60000 kPa, m1 = 0.02944	1599.2
80000 kPa, m1 = 0.02283	1632.1
80000 kPa, m1 = 0.0239	1632.1
80000 kPa, m1 = 0.02481	1632.2
80000 kPa, m1 = 0.02661	1632.3
80000 kPa, m1 = 0.02749	1632.4
80000 kPa, m1 = 0.02755	1632.4
80000 kPa, m1 = 0.02877	1632.5
80000 kPa, m1 = 0.02944	1632.5
100000 kPa, m1 = 0.02283	1665.2
100000 kPa, m1 = 0.0239	1665.3
100000 kPa, m1 = 0.02481	1665.3
100000 kPa, m1 = 0.02661	1665.5
100000 kPa, m1 = 0.02749	1665.5
100000 kPa, m1 = 0.02755	1665.5
100000 kPa, m1 = 0.02877	1665.6
100000 kPa, m1 = 0.02944	1665.6
